The source made the active and inactive calls. The rule behind the calls is not given here.
What was measured:
[1] = Drug uptake in human RKO cells overexpressing integrin alpha5beta1 at 1 uM measured at 60 to 300 mins by Hoechst 33342 staining based fluorescence analysis; assay type: ADME, cell-based; settings: time 60-300 min
[2] = Drug uptake in human M21 cells overexpressing integrin alphaVbeta3 at 1 uM measured at 60 to 300 mins by Hoechst 33342 staining based fluorescence analysis; assay type: ADME, cell-based; settings: m21, 1 µM, time 60-300 min
[3] = Drug localization in cell membrane of human RKO cells overexpressing integrin alpha5beta1 at 1 uM measured at 30 mins by CellMask green staining based fluorescence analysis; assay type: ADME, cell membranes; settings: 0.5 h
[4] = Drug localization in cell membrane of human RKO cells overexpressing integrin alpha5beta1 at 1 uM measured within 3 mins by CellMask green staining based fluorescence analysis; assay type: ADME, cell membranes; settings: 0.05 h
[5] = molecular target: T1, Integrin alpha-5/beta-1 (Homo sapiens, UniProt P05556+P08648); test: Competitive binding affinity to human Integrin alpha5beta1 incubated for 1 hrs in presence of fibronectin by ELISA based spectrophotometric analysis; assay type: protein-complex assay
[6] = molecular target: T2, Integrin alpha-V/beta-3 (Homo sapiens, UniProt P05106+P06756); test: Competitive binding affinity to human Integrin alphaVbeta3 incubated for 1 hrs in presence of vitronectin by ELISA based spectrophotometric analysis; assay type: protein-complex assay
[7] = molecular target: T3, Integrin alpha-V/beta-6 (Homo sapiens, UniProt P06756+P18564); test: Competitive binding affinity to human Integrin alphaVbeta6 incubated for 1 hrs in presence of […] of TGF-beta1 by ELISA based spectrophotometric analysis; assay type: protein-complex assay
[8] = tested on: OV-MZ-6; test: Inhibition of cell migration in human OV-MZ-6 cells expressing integrin alpha5beta1 assessed as delay in wound gap closure at 1 to 1000 nM measured immediately by wound scratch assay; assay type: functional, cell-based; settings: dose 1-1000 nM
[9] = molecular target: T1, Integrin alpha-5/beta-1; test: Agonist activity at integrin alpha5beta1 in human OV-MZ-6 cells assessed as increase in FAK expression at 1 to 1000 nM measured after 5 to 60 mins by Western blot analysis; assay type: cell-based; settings: dose 1-1000 nM, time 5-60 min
[10] = molecular target: T1, Integrin alpha-5/beta-1; test: Agonist activity at integrin alpha5beta1 in human OV-MZ-6 cells assessed as increase in FAK expression at 1 uM incubated for 24 hrs by Western blot analysis; assay type: cell-based
[11] = molecular target: T2, Integrin alpha-V/beta-3; test: Agonist activity at integrin alphaVbeta3 in human M21 cells assessed as increase in ERK1/2 expression at 1 uM incubated for 24 hrs by Western blot analysis; assay type: cell-based
[12] = molecular target: T3, Integrin alpha-V/beta-6; test: Agonist activity at integrin alphaVbeta6 in human HN cells assessed as increase in FAK expression at 1 to 1000 nM measured within 60 mins by Western blot analysis; assay type: cell-based; settings: filed as agonist, dose 1-1000 nM
[13] = molecular target: T2, Integrin alpha-V/beta-3; test: Agonist activity at integrin alphaVbeta3 in human M21 cells assessed as increase in p-ERK1/2 expression at 1 uM incubated for 24 hrs by Western blot analysis; assay type: cell-based
[14] = molecular target: T2, Integrin alpha-V/beta-3; test: Agonist activity at integrin alphaVbeta3 in human M21 cells assessed as increase in FAK expression at 1 uM incubated for 24 hrs by Western blot analysis; assay type: cell-based
[15] = tested on: OV-MZ-6; test: Inhibition of cell migration in human OV-MZ-6 cells expressing integrin alpha5beta1 assessed as delay in wound gap closure at 1 to 1000 nM measured after 72 hrs by wound scratch assay; assay type: functional, cell-based; settings: dose 1-1000 nM
[16] = molecular target: T1, Integrin alpha-5/beta-1; test: Agonist activity at integrin alpha5beta1 in human OV-MZ-6 cells assessed as increase in p-ERK1/2 expression at 1 uM incubated for 24 hrs by Western blot analysis; assay type: cell-based
[17] = molecular target: T1, Integrin alpha-5/beta-1; test: Agonist activity at integrin alpha5beta1 in human OV-MZ-6 cells assessed as increase in ERK1/2 expression at 1 uM incubated for 24 hrs by Western blot analysis; assay type: cell-based
[18] = molecular target: T3, Integrin alpha-V/beta-6; test: Agonist activity at integrin alphaVbeta6 in human HN cells assessed as fold increase in p-FAK expression at 1 nM measured within 30 mins by Western blot analysis (reference value: 1); assay type: cell-based; settings: filed as agonist
[19] = molecular target: T2, Integrin alpha-V/beta-3; test: Agonist activity at integrin alphaVbeta3 in human M21 cells assessed as increase in p-FAK expression at 1 uM incubated for 24 hrs by Western blot analysis; assay type: cell-based
[20] = molecular target: T3, Integrin alpha-V/beta-6; test: Agonist activity at integrin alphaVbeta6 in human HN cells assessed as fold increase in p-FAK expression at 1 uM measured within 30 mins by Western blot analysis (reference value: 1); assay type: cell-based; settings: filed as agonist
[21] = tested on: HN; test: Effect on cell migration in human HN cells expressing integrin alphaVbeta6 at 1 to 1000 nM measured after 9 to 24 hrs by wound scratch assay; assay type: functional, cell-based; settings: dose 1-1000 nM, time 9-24 hrs
[22] = tested on: HN; test: Effect on cell migration in human HN cells expressing alphaVbeta6 at 1 to 1000 nM measured after 48 hrs by microscopic imaging analysis; assay type: functional, cell-based; settings: dose 1-1000 nM
[23] = molecular target: T1, Integrin alpha-5/beta-1; test: Agonist activity at integrin alpha5beta1 in human OV-MZ-6 cells assessed as fold increase in p-FAK expression at 1 nM measured after 5 to 60 mins by Western blot analysis (reference value: 1); assay type: cell-based; settings: filed as agonist, time 5-60 min
[24] = molecular target: T1, Integrin alpha-5/beta-1; test: Agonist activity at integrin alpha5beta1 in human OV-MZ-6 cells assessed as increase in p-FAK expression at 1 uM incubated for 24 hrs by Western blot analysis; assay type: cell-based

Cc1cc(OCCCNC(=O)CCCCCNC(=O)CCCCC[N+]2=C(/C=C/C=C/C=C3/N(C)c4ccc5ccccc5c4C3(C)C)C(C)(C)c3c2ccc2ccccc32)cc(C)c1C(=O)N[C@@H](CNC(=O)CNC(=O)c1cccc(NC(=N)N)c1)C(=O)O
Drug uptake [1]: Active
Drug uptake [2]: Not_active
Drug uptake [3]: Active
Drug uptake [4]: Active

CC(C)C[C@H](NC(=O)[C@H](CO)NC(=O)[C@H](CC(=O)O)NC(=O)[C@H](CC(C)C)NC(=O)[C@H](CC(=O)O)NC(=O)[C@@H](NC(=O)[C@@H](N)CCCNC(=N)N)[C@@H](C)O)C(=O)N[C@@H](CCCNC(=N)N)C(=O)N[C@H](C(=O)O)[C@@H](C)O
IC50 [5]: > 1000 nM
IC50 [6]: > 1000 nM
IC50 [7]: 29.5 nM

CC(C)C[C@@H]1NC(=O)[C@H](CC(=O)O)NC(=O)CNC(=O)[C@H](CCCNC(=N)N)NC(=O)[C@H](Cc2ccccc2)NC(=O)[C@H](CCCCN)N(C)C(=O)[C@H]2CCCN2C(=O)[C@H](Cc2ccccc2)NC(=O)[C@H](C)NC1=O
inhibition [8]: Active
Activity [9]: inactive
Activity [10]: inactive
Activity [11]: inactive
Activity [12]: Active; Slight Increase Observed
Activity [13]: inactive
Activity [14]: inactive
inhibition [15]: inactive
IC50 [6]: > 1000 nM
Activity [16]: inactive
Activity [17]: inactive
fold change (FC) [18]: 5
Activity [19]: inactive
fold change (FC) [20]: 6
Activity [21]: inactive
IC50 [7]: 0.28 nM
Activity [22]: inactive
fold change (FC) [23]: 2.9
Activity [24]: inactive
